Experimental data as given in patent US10723706B2, “Perk inhibitors and uses thereof in treating diseases associated with aggregation-prone proteins” (Ramot at Tel-Aviv University Ltd., priority 2016, dated 2020).

Experiments:
[1] = system: betaTC-tet pancreatic islet beta-cell line; assay: Toxicity in pancreatic beta cells; type: cell-based, mouse; conditions: betaTC-tet cells, tested concentration range up to 500 nm
Description: MK-28 toxicity was tested in pancreatic beta cells, the type of cell that is most sensitive when ER stress response pathways are affected. A conditionally transformed mouse pancreatic islet beta-cell line (betaTC-tet), such as described by Efrat [Ann NY Acad Sci 1999, 875:286-293], was used. These cells produce high amounts of insulin, resulting in a high protein load in the ER, making them very sensitive to ER stress and other stimuli, such as cytokine effects. Compromising any of the UPR branches leads to cytotoxicity in these cells. MK-28 was compared to the ER stressor tunicamycin (Tun).

[2] = molecular target: T1, RIPK1 (Homo sapiens, UniProt Q13546); conditions: Rojas-Rivera et al. 2017; cited from earlier work
T1 sequence (Q13546 1-671): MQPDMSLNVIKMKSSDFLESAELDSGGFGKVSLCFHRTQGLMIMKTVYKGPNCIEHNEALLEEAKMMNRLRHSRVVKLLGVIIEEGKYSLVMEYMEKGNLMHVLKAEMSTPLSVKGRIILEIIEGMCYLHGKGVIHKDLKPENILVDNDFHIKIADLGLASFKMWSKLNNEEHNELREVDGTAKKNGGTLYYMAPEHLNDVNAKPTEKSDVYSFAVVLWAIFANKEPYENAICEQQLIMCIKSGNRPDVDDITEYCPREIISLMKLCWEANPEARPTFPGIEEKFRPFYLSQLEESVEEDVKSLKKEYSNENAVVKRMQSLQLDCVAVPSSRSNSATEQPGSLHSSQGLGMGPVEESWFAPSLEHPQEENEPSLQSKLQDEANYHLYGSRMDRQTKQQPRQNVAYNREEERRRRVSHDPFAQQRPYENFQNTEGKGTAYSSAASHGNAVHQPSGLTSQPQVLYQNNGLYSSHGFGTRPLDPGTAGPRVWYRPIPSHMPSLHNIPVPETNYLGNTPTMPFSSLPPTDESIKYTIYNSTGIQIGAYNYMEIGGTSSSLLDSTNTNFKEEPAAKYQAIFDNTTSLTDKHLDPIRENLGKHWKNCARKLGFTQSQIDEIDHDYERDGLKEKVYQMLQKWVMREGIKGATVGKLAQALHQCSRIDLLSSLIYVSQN

[3] = molecular target: T2, PERK (eIF2αK3) (Mus musculus, UniProt Q9Z2B5); assay: ER stress-mediated eIF2α phosphorylation in tunicamycin-treated striatal cells (immunoblotting); type: cell-based, murine; conditions: STHdhQ7/7 cells, Tun 5 μg/ml for 48 hours; A4 50 μM, PKRi 1 μM
T2 construct: endogenous in cells; host or cells: STHdhQ7/7 murine striatal cells
T2 sequence (Q9Z2B5 29-1114): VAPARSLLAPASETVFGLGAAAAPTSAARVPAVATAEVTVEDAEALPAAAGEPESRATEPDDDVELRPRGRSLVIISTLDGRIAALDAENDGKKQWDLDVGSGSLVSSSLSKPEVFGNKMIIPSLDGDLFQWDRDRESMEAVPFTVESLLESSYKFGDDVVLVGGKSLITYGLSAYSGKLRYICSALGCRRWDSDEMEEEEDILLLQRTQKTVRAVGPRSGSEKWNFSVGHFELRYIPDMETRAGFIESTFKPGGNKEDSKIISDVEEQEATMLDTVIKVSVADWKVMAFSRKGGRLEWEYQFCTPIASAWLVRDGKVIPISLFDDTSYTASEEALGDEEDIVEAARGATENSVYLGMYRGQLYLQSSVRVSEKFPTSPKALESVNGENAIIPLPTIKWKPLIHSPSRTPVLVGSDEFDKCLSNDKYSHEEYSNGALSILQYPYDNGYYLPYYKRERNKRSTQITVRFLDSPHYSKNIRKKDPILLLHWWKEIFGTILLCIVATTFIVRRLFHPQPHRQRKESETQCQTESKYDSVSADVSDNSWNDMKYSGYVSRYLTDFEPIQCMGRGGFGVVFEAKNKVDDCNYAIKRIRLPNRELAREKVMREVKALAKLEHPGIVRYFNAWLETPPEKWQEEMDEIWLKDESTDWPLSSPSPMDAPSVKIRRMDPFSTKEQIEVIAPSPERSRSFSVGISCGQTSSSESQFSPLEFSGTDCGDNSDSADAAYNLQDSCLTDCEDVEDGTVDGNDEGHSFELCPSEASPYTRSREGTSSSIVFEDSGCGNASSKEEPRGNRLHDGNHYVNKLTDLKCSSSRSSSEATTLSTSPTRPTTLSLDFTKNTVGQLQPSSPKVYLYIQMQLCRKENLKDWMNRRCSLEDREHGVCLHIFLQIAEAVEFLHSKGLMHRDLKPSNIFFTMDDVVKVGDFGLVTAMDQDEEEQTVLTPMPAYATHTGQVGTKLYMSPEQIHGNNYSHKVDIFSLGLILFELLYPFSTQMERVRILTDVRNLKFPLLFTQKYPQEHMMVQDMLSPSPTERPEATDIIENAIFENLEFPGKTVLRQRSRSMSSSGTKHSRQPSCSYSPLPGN
Description: (§1) STHdhQ7/7 and STHdhQ111/111 cells were grown as described in Leitman et al. [PLoS One 2014, 9(3):e90803].
(§2) Cells were treated with Tun ([…]) or with A4, PKRi, poly-I:C or exemplary PERK inhibitors of the present embodiments, by adding the tested compound to the cell medium at the indicated concentrations and times. Cell lysis and immunoblotting was performed as described in Leitman et al. [PLoS One 2014, 9(3):e90803].
As the activity of PERK was particularly affected in the Huntington's disease (HD) models [Leitman et al., PLoS One 2014, 9(3):e90803], the therapeutic capacity of a PERK inhibitor named A4 [Wang et al., Chem Biol Drug Des 2010, 76:480-495] was tested in cells expressing polyQ-expanded Htt, as depicted in Background art FIG. 1.

[4] = molecular target: T3, PKR (eIF2αK2) (Mus musculus, UniProt Q03963); assay: PKR activity induced with poly-I:C in cells; type: cell-based
T3 construct: endogenous in cells
T3 sequence (Q03963 1-515): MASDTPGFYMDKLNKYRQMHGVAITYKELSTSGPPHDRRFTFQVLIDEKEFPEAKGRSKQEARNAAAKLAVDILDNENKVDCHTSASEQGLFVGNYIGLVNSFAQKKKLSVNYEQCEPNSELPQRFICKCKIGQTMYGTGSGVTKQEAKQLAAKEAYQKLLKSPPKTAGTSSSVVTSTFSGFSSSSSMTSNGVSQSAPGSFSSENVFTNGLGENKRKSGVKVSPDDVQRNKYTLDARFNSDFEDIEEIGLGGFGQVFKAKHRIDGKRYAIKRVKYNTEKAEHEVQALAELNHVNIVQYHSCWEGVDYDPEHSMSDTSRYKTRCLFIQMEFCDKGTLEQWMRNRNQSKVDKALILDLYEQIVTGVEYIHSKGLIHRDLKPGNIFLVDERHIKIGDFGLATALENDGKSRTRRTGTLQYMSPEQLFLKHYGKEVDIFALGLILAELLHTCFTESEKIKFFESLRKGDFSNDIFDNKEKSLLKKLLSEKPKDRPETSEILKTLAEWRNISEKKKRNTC
Description: as §2

[5] = system: STHdhQ111/111 cells; assay: Rescue from UPR-induced cell death (tunicamycin), PI cell cycle FACS, sub-G0/G1 fraction; type: cell-based; conditions: Tun for 48 hours
Description: as §1
After the indicated treatment times in full medium or in DMEM without serum, cells were incubated with propidium iodide (PI) solution ([…]) and read by flow cytometry as described in Leitman et al. [PLoS One 2014, 9(3):e90803]. Cells in sub-G0/G1 were counted as apoptotic/dead cells.
The activity of the novel inhibitors, compared to A4, in preventing cytotoxicity induced by pathogenic Htt, was then tested. A stable murine striatal cell line expressing full-length polyQ-expanded Htt, STHdhQ^111/111, was used.

[6] = system: cells; assay: Intrinsic cytotoxicity on cells; type: cell-based

Tunicamycin [reference compound]
toxicity in pancreatic beta cells [1]: toxic

Cc1cccc(CC(=O)N2CCc3c2ccc(-c2cn(C)c4ncnc(N)c24)c3F)n1 [GSK2656157]
inhibition of RIPK1 [2]: potent inhibitors of RIPK1

O=C1Nc2ccc3ncsc3c2/C1=C/c1cnc[nH]1 [PKRi, reference compound]
inhibition of ER stress-mediated eIF2α phosphorylation [3]: not by PKRi | inhibition of PKR activity [4]: inhibited | rescue from UPR-induced cell death (cytotoxicity) [5]: had no effect | rescue from UPR-induced cell death (cytotoxicity) ([5]; listed as PKR inhibitor): no effect

COc1cc(/C=N\N(C)c2nc(-c3ccccc3)cc(-c3ccccc3)n2)ccc1O [Compound 1, 2-{N-methyl-N′-(3-methoxy-4-hydroxybenzylidene)hydrazinyl}-4,6-diphenylpyrimidine]
rescue from UPR-induced cell death (cytotoxicity) [5]: more potent than A4 | intrinsic cytotoxicity on cells [6]: neither MPGL1 nor MK-28 exhibited intrinsic cytotoxicity

Cn1cc(-c2ccc3c(c2)CCN3C(=O)Cc2cccc(C(F)(F)F)c2)c2c(N)ncnc21 [GSK2606414]
inhibition of RIPK1 [2]: potent inhibitors of RIPK1
